Experimental data: patent US11370775B2, “Substituted benzimidazole derivatives as D-amino acid oxidase (DAAO) inhibitors” (NATIONAL TAIWAN UNIVERSITY, priority 2016, dated 2022)

Key:
[1] = target: T1, porcine kidney DAO (Sus scrofa, UniProt P00371); assay: pkDAO enzymatic assay (porcine kidney DAO IC50 assay); assay type: biochemical; details: D-alanine substrate, pH 8.3, 37° C., without FAD
T1 construct: purchased Sigma-Aldrich; host or cells: porcine kidney
Description: The DAAO enzymatic activity assay was modified according to the report of Oguri et al (Oguri, S., Screening of d-amino acid oxidase inhibitor by a new multi-assay method. Food chemistry 2007, 100 (2), 616). The DAAO activity was measured by using substrate D-alanine reaction produced hydrogen peroxide (H2O2) to further react with 3-(4-hydroxyphenyl) propionic acid (HPPA). The HPPA were oxidized by H2O2 and peroxidase to become the fluorogenic dimer which was measured to represent the activity of DAAO.
For porcine kidney DAO IC50 assay, the DAO substrate was prepared in 50 mM D-alanine (dissolved in 0.2 M Tris-HCl buffer, pH 8.3). A 100 μl of D-alanine solution was mixed with 4 μl (in 100% dimethyl sulfoxide, DMSO) of different concentrations of candidate compounds shown in tables below ranging from 48.83 μM, 97.66 μM, 195.31 μM, 390.63 μM, 781.25 μM, 1.56 mM, 3.13 mM, 6.25 mM, 12.50 mM, 25.00 mM, and 50.00 mM, with a final DMSO concentration of 0.167% in each reaction concentration. 10 μl of D-alanine and candidate compound mixture was incubated with 220 μl of Reaction Master Mix in black 96 well plate at 37° C. for 5 minutes. The Reaction Master Mix contained 110 μl of 5 U/mL porcine kidney DAO (Sigma-Aldrich, USA) solution (dissolved with 0.2 M Tris-HCl buffer, pH 8.3), 1.1 mL of 15 U/mL peroxidase solution (dissolved with 0.2 M Tris-HCl buffer, pH 8.3), 1.1 mL of 20 mM HPPA solution (dissolved with 0.2 M Tris-HCl buffer, pH 8.3), and 22 ml of 2 M Tris-HCl buffer (pH 8.3) for 110 reaction assays.
Fluorescence intensity (Fs) was measured at 405 nm by irradiation excitation at 320 nm. The higher the DAO enzymatic activity was, the higher the fluorescence intensity. The fluorometric inhibition indicator (Fi) was obtained from the following equation: Fi=(Fs-FDrug)/(FDMSO), where the fluorescent drug blank (FDrug) was measured in the drug mixture solution (using 0.2 M Tris HCl buffer, pH 8.3, without D-alanine). A DMSO blank (FDMSO) was measured under a 100% DMSO solution.
Although FAD is generally included in the reaction mixture in the D-amino acid oxidase assay since it easily dissociates from the holoenzyme, the present method was performed without FAD. The inhibitory effect of DAO inhibitors was compared by using inhibitory concentrations leading to 50% inhibition of DAAO activity (IC50). The IC50 values were calculated by nonlinear regression model using GraphPad Prism, version 5(GraphPad Software, Inc., La Jolla, Calif.).

[2] = test system: MK-801-induced PPI deficit in C57BL/6 mice; assay: Prepulse inhibition, MK-801-induced PPI deficit; assay type: in vivo; details: MK-801 0.2 mg/kg i.p.
Text: The NMDA-receptor antagonist MK-801-induced negative or cognitive deficits in C57BL/6 mice were in a well-established drug-induced schizophrenia mouse model and as a useful pharmacological animal model to identify if the RS-D7, its analog and its prodrug improve the symptoms through the NMDA receptor.
All wild-type (WT) mice used in this study were backcrossed onto a C57BL/6J background from the Laboratory Animal Center of National Taiwan University Hospital, and all behavioral examinations were conducted in WT mice. For acclimatizing to laboratory conditions, the mice were allowed free access to food and water and were housed in groups with a 12 hours light-dark cycle in a temperature and humidity controlled room of the Psychology Department, National Taiwan University. All animals within the age of 3 months were housed individually one week before experiment testing with food and water available ad libitum. In the beginning of the experiments, the mice were handled and weighted daily at least 1 week before the behavioral experiments. The entire animal procedures were performed according to protocols approved by the Animal Care and Use Committee established by the National Taiwan University.
MK-801 was dissolved in saline and administered at a volume of 0.01 ml/g body weight. RS-D7, Drug 12083 (analog of RS-D7) and was freshly dissolved in 1% CMC to the concentration of 2 mg/ml before usage. Prodrug 28095 was freshly dissolved in NMP:HP-beta-CD:H2O (5:25:70) to the concentration of 2 mg/ml before usage. All animals were given vehicle (saline) or MK-801 (0.2 mg/kg, i.p.) 25 minutes before the behavioral experiments. Both vehicle (1% CMC or NMP:HP-beta-CD:H2O) and experimental groups (RS-D7, Drug 12083 or Prodrug 28095) were treated after 5 minutes MK-801 administration with the appropriate dose via P.O. injections (at a volume of 0.01 ml/g body weight).
For investigating the treatment effect of RS-D7 for negative and cognitive symptoms, a series of three behavioral tests (run from the first to the third week), which included open field, sucrose preference test and prepulse inhibition were performed in sequence with a 1-week interval between tests.
To assess the sensorimotor gating function, each mouse was tested with the SR-LAB startle apparatus (San Diego Instruments, San Diego, Calif., USA). The background noise was 72 dB during testing. Each session was initiated with a 5 minutes acclimatization period followed by 64 trials, consisting of pulse-alone (P-alone) trials, prepulse pulse (pp+P) trials, and no stimulation (nostim) trials. A P-alone trial was a 120 dB white noise burst of 40 msec. In the pp+P trials, the 120 dB pulse was preceded (by 100 msec) by a 20 msec of white noise prepulse burst of 78 dB (PP6), 82 dB (PP10), or 90 dB (PP18). The nostim trials consisted of background noise only. The session began and ended with a block of six presentations of the P-alone trial. Between these two blocks, the rest of the 52 trials were performed pseudorandomly and separated by intertrial intervals of 15 sec on average (varying between 10 and 20 sec). PPI was calculated as a percentage of the startle response using the formula: % PPI=100× [(P-alone score)-(pp+P score)]/(pulse-alone score), where the pulse-alone score was the average of the pulse-alone values from the in-between block of 52 trials.

T1 sequence (P00371 whole entry): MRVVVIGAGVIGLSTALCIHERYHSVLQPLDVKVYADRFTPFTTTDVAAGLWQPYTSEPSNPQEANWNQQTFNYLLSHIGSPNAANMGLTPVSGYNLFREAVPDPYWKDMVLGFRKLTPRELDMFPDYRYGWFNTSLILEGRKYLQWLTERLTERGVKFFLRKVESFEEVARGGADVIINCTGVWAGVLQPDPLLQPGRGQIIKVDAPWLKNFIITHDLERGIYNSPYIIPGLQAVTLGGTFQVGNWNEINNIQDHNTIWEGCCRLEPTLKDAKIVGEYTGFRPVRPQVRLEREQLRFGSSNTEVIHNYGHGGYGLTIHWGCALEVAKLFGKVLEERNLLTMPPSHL

`COc1c(C)cnc(C[S+]([O-])c2nc3ccc(O)cc3[nH]2)c1C` (stereo not shown) [RS-D7, reference compound] was tested, and the IC50 [1] was 1.19 µM, the “Effect on MK-801 induced PPI deficit” value ([2]; 100 mg/kg P.O.) was “significantly alleviated MK-801 induced PPI deficit” and the “Effect on MK-801 induced PPI deficit” value ([2]; 200 mg/kg P.O.) was “significantly alleviated MK-801 induced PPI deficit”. For the same compound, the “Effect on MK-801 induced PPI deficit” value ([2]; 400 mg/kg P.O.) was “significantly alleviated MK-801 induced PPI deficit”.
In the case of `COc1c(C)cnc(CSc2nc3cc(C(=O)O)ccc3n2CCC2=CCCCC2)c1C` [compound 12083, 1-(2-(cyclohex-1-en-1-yl)ethyl)-2-(((4-methoxy-3,5-dimethylpyridin-2-yl)methyl)thio)-1H-benzo[d]imidazole-5-carboxylic acid], the IC50 [1] is reported as 367 µM, the “Effect on MK-801 induced PPI deficit” value ([2]; 20 mg/kg P.O.) is reported as “significantly alleviated MK-801 induced PPI deficit” and the “Effect on MK-801 induced PPI deficit” value ([2]; 40 mg/kg P.O.) is reported as “significantly alleviated MK-801 induced PPI deficit”.
